Data as given in PubChem BioAssay AID256 (DTP/NCI, 2004).
“And” between values parts separate entries of the source, which are not always exact repeats. Equal values may be shown once. Toxic doses and inconclusive results are not listed. The calls were made as follows: active = survival T/C of 150% or more; inactive = T/C below 125% in these data.

Test system: CD2F1 mice, L1210 leukemia ip, survival T/C
Assay: NCI In Vivo Anticancer Drug Screen. Data for tumor model L1210 Leukemia (intraperitoneal) in CD2F1 (CDF1) mice
Details: higher = longer survival
Procedure, shortened: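 Implant tumor; dose compound or vehicle; measure endpoint in both groups; report treated divided by control.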

[1] = endpoint: mean survival time, dose: 100.0 mg/kg/injection, schedule: Q01DX009 (ip), vehicle: saline with Tween-80
[2] = endpoint: mean survival time, dose: 200.0 mg/kg/injection, schedule: Q01DX009 (ip), vehicle: saline with Tween-80
[3] = endpoint: mean survival time, dose: 400.0 mg/kg/injection, schedule: Q01DX009 (ip), vehicle: saline with Tween-80
[4] = endpoint: mean survival time, dose: 50.0 mg/kg/injection, schedule: Q01DX009 (ip), vehicle: saline with Tween-80
[5] = endpoint: mean survival time, dose: 100.0 mg/kg/injection, schedule: Q04DX003 (ip), vehicle: saline
[6] = endpoint: mean survival time, dose: 100.0 mg/kg/injection, schedule: Q04DX002 (ip), vehicle: saline with Tween-80
[7] = endpoint: mean survival time, dose: 200.0 mg/kg/injection, schedule: Q04DX002 (ip), vehicle: saline with Tween-80
[8] = endpoint: mean survival time, dose: 1.56 mg/kg/injection, schedule: Q01DX005 (ip), vehicle: water
[9] = endpoint: mean survival time, dose: 3.13 mg/kg/injection, schedule: Q01DX005 (ip), vehicle: water
[10] = endpoint: mean survival time, dose: 6.25 mg/kg/injection, schedule: Q01DX005 (ip), vehicle: water
[11] = endpoint: mean survival time, dose: 25.0 mg/kg/injection, schedule: Q04DX002 (ip), vehicle: saline with Tween-80
[12] = endpoint: mean survival time, dose: 12.5 mg/kg/injection, schedule: Q01DX009 (ip), vehicle: Klucel (hydroxypropylcellulose) (HPC)
[13] = endpoint: mean survival time, dose: 25.0 mg/kg/injection, schedule: Q01DX009 (ip), vehicle: Klucel (hydroxypropylcellulose) (HPC)
[14] = endpoint: mean survival time, dose: 100.0 mg/kg/injection, schedule: Q04DX003 (ip), vehicle: saline with Tween-80
[15] = endpoint: mean survival time, dose: 200.0 mg/kg/injection, schedule: Q04DX003 (ip), vehicle: saline with Tween-80
[16] = endpoint: mean survival time, dose: 400.0 mg/kg/injection, schedule: Q04DX003 (ip), vehicle: saline with Tween-80
[17] = endpoint: mean survival time, dose: 100.0 mg/kg/injection, schedule: Q01DX001 (ip), vehicle: saline
[18] = endpoint: mean survival time, dose: 200.0 mg/kg/injection, schedule: Q01DX001 (ip), vehicle: saline

Measured: T/C

S=C(S)NCCc1ccccn1
inactive: [1] 102 % of control | [2] 94 % of control | [3] 103 % of control

COc1nc(NC(C)C)nc(NC(C)C)n1
inactive: [4] 97 % of control | [1] 107 % of control | [5] 95 % of control | [2] 105 % of control | endpoint: mean survival time, dose: 200.0 mg/kg/injection, schedule: Q04DX003 (ip), vehicle: saline 100 % of control

CC(C)(O)C#CC(C)(C)OC(O)C(Cl)(Cl)Cl (stereo not given)
inactive: [6] 96 % of control | [7] 101 % of control | endpoint: mean survival time, dose: 400.0 mg/kg/injection, schedule: Q04DX002 (ip), vehicle: saline with Tween-80 93 % of control

COc1cc2c(cc1OC)C(C#N)N(C(=O)c1ccccc1)C=C2 (stereo not given)
inactive: endpoint: mean survival time, dose: 25.0 mg/kg/injection, schedule: Q01DX009 (ip), vehicle: water 93 % of control | endpoint: mean survival time, dose: 50.0 mg/kg/injection, schedule: Q01DX009 (ip), vehicle: water 100 % of control | endpoint: mean survival time, dose: 100.0 mg/kg/injection, schedule: Q01DX009 (ip), vehicle: water 93 % of control | endpoint: mean survival time, dose: 200.0 mg/kg/injection, schedule: Q01DX009 (ip), vehicle: water 94 % of control | endpoint: mean survival time, dose: 400.0 mg/kg/injection, schedule: Q01DX009 (ip), vehicle: water 86 % of control

N=c1ncn(C2OC(COP(=O)(O)O)C(O)C2O)c2nc[nH]c12 (stereo not given)
inactive: endpoint: mean survival time, dose: 0.78 mg/kg/injection, schedule: Q01DX005 (ip), vehicle: water 102 % of control | [8] 110 % of control | [9] 105 % of control | [10] 111 % of control | endpoint: mean survival time, dose: 11.3 mg/kg/injection, schedule: Q01DX005 (ip), vehicle: water 98 % of control | endpoint: mean survival time, dose: 12.5 mg/kg/injection, schedule: Q01DX005 (ip), vehicle: water 102 % of control | endpoint: mean survival time, dose: 22.5 mg/kg/injection, schedule: Q01DX005 (ip), vehicle: water 98 % of control | endpoint: mean survival time, dose: 45.0 mg/kg/injection, schedule: Q01DX005 (ip), vehicle: water 102 % of control

CCOP1(=S)Nc2cc(C)c(C)cc2N1
inactive: [11] 98 % of control | endpoint: mean survival time, dose: 50.0 mg/kg/injection, schedule: Q04DX002 (ip), vehicle: saline with Tween-80 87 % of control | [6] 87 % of control | [7] 87 % of control

C[n+]1ccn(CC(=O)c2ccccc2)c1
inactive: endpoint: mean survival time, dose: 25.0 mg/kg/injection, schedule: Q01DX009 (ip), vehicle: saline 105 % of control | endpoint: mean survival time, dose: 50.0 mg/kg/injection, schedule: Q01DX009 (ip), vehicle: saline 103 % of control | endpoint: mean survival time, dose: 100.0 mg/kg/injection, schedule: Q01DX009 (ip), vehicle: saline 105 % of control | [5] 102 % of control

ClCCN(CCCl)c1ccc(CCN2CCCCC2)cc1
inactive: endpoint: mean survival time, dose: 3.12 mg/kg/injection, schedule: Q01DX009 (ip), vehicle: Klucel (hydroxypropylcellulose) (HPC) 106 % of control | endpoint: mean survival time, dose: 6.25 mg/kg/injection, schedule: Q01DX009 (ip), vehicle: Klucel (hydroxypropylcellulose) (HPC) 106 % of control | [12] 121 % of control and 108 % of control | [13] 118 % of control

CC[N+](C)(CC)CCCOC(=O)C(c1ccccc1)c1ccccc1
inactive: endpoint: mean survival time, dose: 6.25 mg/kg/injection, schedule: Q01DX009 (ip), vehicle: saline with Tween-80 96 % of control | endpoint: mean survival time, dose: 12.5 mg/kg/injection, schedule: Q01DX009 (ip), vehicle: saline with Tween-80 96 % of control | endpoint: mean survival time, dose: 25.0 mg/kg/injection, schedule: Q01DX009 (ip), vehicle: saline with Tween-80 94 % of control

COc1cc(Cl)ccc1NC(=O)Oc1c(OC)cccc1OC
inactive: [1] 100 % of control | [2] 106 % of control | [3] 103 % of control

O=c1[nH]cnc2n[nH]c(Br)c12
inactive: endpoint: median survival time, dose: 50.0 mg/kg/injection, schedule: Q01DX005 (ip), vehicle: saline with Tween-80 107 % of control | endpoint: median survival time, dose: 100.0 mg/kg/injection, schedule: Q01DX005 (ip), vehicle: saline with Tween-80 111 % of control | endpoint: median survival time, dose: 200.0 mg/kg/injection, schedule: Q01DX005 (ip), vehicle: saline with Tween-80 119 % of control

O=C1CSC(=S)N1/N=C/c1ccc(Cl)s1
inactive: endpoint: mean survival time, dose: 75.0 mg/kg/injection, schedule: Q01DX001 (ip), vehicle: other 96 % of control

O=[N+]([O-])c1ccc(O/N=C(\CN2CCOCC2)c2ccc(Cl)cc2)c([N+](=O)[O-])c1
inactive: [14] 94 % of control | [15] 86 % of control | [16] 90 % of control

CCO/N=C(\N)c1ccccc1
inactive: [4] 106 % of control | [17] 111 % of control | [1] 98 % of control | [18] 108 % of control | [2] 100 % of control | endpoint: mean survival time, dose: 400.0 mg/kg/injection, schedule: Q01DX001 (ip), vehicle: saline 104 % of control

O.[Co].[NH2-].[NH2-].[NH2-].[NH2-].[NH2-]
inactive: [11] 93 % of control | [6] 90 % of control | endpoint: mean survival time, dose: 100.0 mg/kg/injection, schedule: Q04DX002 (ip), vehicle: saline 98 % of control

COc1ccc2ccccc2c1C1NC(=O)c2ccccc2N1 (stereo not given)
inactive: [12] 95 % of control and 102 % of control | [13] 101 % of control and 102 % of control | endpoint: mean survival time, dose: 50.0 mg/kg/injection, schedule: Q01DX009 (ip), vehicle: Klucel (hydroxypropylcellulose) (HPC) 105 % of control and 107 % of control | endpoint: mean survival time, dose: 100.0 mg/kg/injection, schedule: Q01DX009 (ip), vehicle: Klucel (hydroxypropylcellulose) (HPC) 101 % of control and 104 % of control | endpoint: mean survival time, dose: 200.0 mg/kg/injection, schedule: Q01DX009 (ip), vehicle: Klucel (hydroxypropylcellulose) (HPC) 104 % of control and 105 % of control | endpoint: mean survival time, dose: 400.0 mg/kg/injection, schedule: Q01DX009 (ip), vehicle: Klucel (hydroxypropylcellulose) (HPC) 119 % of control and 96 % of control

C[CH2][Sn]1([CH2]C)[O]C2C(CO)OC(n3ccc(=O)[nH]c3=O)C2[O]1 (stereo not given)
inactive: [8] 103 % of control | [9] 102 % of control | [10] 96 % of control | endpoint: mean survival time, dose: 12.5 mg/kg/injection, schedule: Q01DX005 (ip), vehicle: other 104 % of control

OC1CNCc2cc3c(cc21)OCO3 (stereo not given)
inactive: [17] 107 % of control | [18] 104 % of control

O=CNc1ccc2c(c1)C(O)c1ccccc1-2 (stereo not given)
inactive: endpoint: mean survival time, dose: 62.5 mg/kg/injection, schedule: Q04DX003 (ip), vehicle: saline with Tween-80 103 % of control | endpoint: mean survival time, dose: 125.0 mg/kg/injection, schedule: Q04DX003 (ip), vehicle: saline with Tween-80 98 % of control | endpoint: mean survival time, dose: 250.0 mg/kg/injection, schedule: Q04DX003 (ip), vehicle: saline with Tween-80 97 % of control

c1ccc2cc3nc4cc5ccccc5cc4nc3cc2c1
inactive: [14] 95 % of control | [15] 103 % of control | [16] 91 % of control

Cc1ccc(C2OC23CC(C)(C)c2ccccc2C3=O)cc1 (stereo not given)
inactive: endpoint: mean survival time, dose: 100.0 mg/kg/injection, schedule: Q01DX009 (ip), vehicle: other 100 % of control | endpoint: mean survival time, dose: 200.0 mg/kg/injection, schedule: Q01DX009 (ip), vehicle: other 96 % of control | endpoint: mean survival time, dose: 400.0 mg/kg/injection, schedule: Q01DX009 (ip), vehicle: other 107 % of control

N#CC(C(=O)N1CCCC1)=C(S)S
inactive: [1] 102 % of control | [14] 100 % of control | [2] 101 % of control | [15] 100 % of control | [3] 102 % of control | [16] 103 % of control
